Publication PMC10447463, “Data-mining unveils structure–property–activity correlation of viral infectivity enhancing self-assembling peptides” (Nature Communications, 2023)
Like-named read-outs stand apart in the source and are kept apart here.

Key:
[1] = Conversion rate (CR) assay with fluorescamine; assay type: physicochemical; set-up: key to CR: % = 100−100×filtrate/original fluorescence intensity; conditions: conversion rate, fluorescamine assay; for CR / %: Fig. S7 panel B
Method in brief: (§1)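 Using ATR FT-IR (diamond, 2 cm^-1, 64 scans), lyophilized 1 mg/mL PNF samples gave β-sheet content by a published calculation. Fluorescamine signals of 3 kDa filtrates relative to unfiltered samples, normalised to DMSO as 1, yielded CR in percent.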

[2] = system: HIV-1 infection of TZM-bl cells; experiment: HIV-1 infectivity enhancement assay, β-galactosidase luminescence; assay type: cell-based; conditions: for Rel-EFC / Log10 Infection Rel EFC: 1.3 µM peptide; for Rel-EFC: infection relative to EF-C (QCKIKQIINMWQ = 1); for Log10 Infection Rel EFC: log10 of infection relative to EF-C; for Log Infectivity: Log10 infection relative to EF-C, TZM-bl cells, asymmetric std dev errors; for Log10 Infection Rel EF-C: HIV-1 infection of TZM-bl cells; for Log10 of Rel to EFC (Feb2021): Log10 of infection relative to EF-C
[3] = assay type: physicochemical; conditions: for Tht category (> 2 to blank = +): Fig S10 panel D; for ThT Cat. / ThT-Fluorescence (categorical): ThT-active if fluorescence at least twice the control
Method in brief: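 Fibrils (1 mg/mL solution) were mixed with 50 µM ThT in PBS for 15 min at RT, and fluorescence was read at λex 440/λem 488 nm against a PBS blank, as a triplicate mean ± SD. Zeta potential came from electrophoretic mobility (Smoluchowski) after 1 d aggregation at 1 mg/mL in PBS pH 7.4, diluted into 1 mM KCl.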

[4] = β-sheet content by ATR-FT-IR; assay type: physicochemical; conditions: for b -sheet / %: Fig. S7 panel A, β-sheet content by ATR-FT-IR
Method in brief: as §1

[5] = Fig. S7 panel A (plotted against β-sheet content)
[6] = Fig. S7 panel B (plotted against CR), rounded to two decimals
[7] = Log10 of infection rate relative to EF-C, Figure 3A source data
[8] = infection rate relative to EF-C, log10, data of Figure 2D
[9] = infection rate relative to EF-C, log10, source data of Figure 2C
[10] = ThT fluorescence category, 1 if Rel. ThT >2

Row | Sequence | CR / % [1] [%] | CR [1] | Rel-EFC [2] | Log10 Infection Rel EFC [2] | Log Infectivity [2, 5] | Log Infectivity [2, 6] | Log10 Infection Rel EF-C [2, 7] | Log10 Infection Rel EF-C [2, 8] | Log10 Infection Rel EF-C [2, 9] | Log10 of Rel to EFC (Feb2021) ([2]; all peptides of FigS16) | Tht category (> 2 to blank = +) [3] | ThT Cat. ([3]; Fig S10 panel E) | ThT Cat, ([3]; ThT category, 1 if Rel. ThT >2) | ThT Cat. [3, 10] | ThT Cat. / ThT-Fluorescence (categorical) [3] | b -sheet / % [4] [%] | also measured
1 | HHHHKIKIKIKIWWWW | 96 | 96 | 0,38 | -0,42 | -0.4216 | -0.42 | -0.42 | -0.4216 | -0.4216 | -0.42 | 1 (ThT. Cat is 1, if Rel. ThT >2) | 1 (ThT. Cat is 1, if Rel. ThT >2) | 1 (ThT. Cat is 1, if Rel. ThT >2) | 1 (ThT. Cat is 1, if Rel. ThT >2) | 1 (ThT. Cat is 1, if Rel. ThT >2) | 48.8 | Log10 of Rel to EFC (Feb2021) ([2]; second listing, peptides with TEM 2cat 0): -0.42; beta sheet ([4]; peptides with TEM 2cat 0): 49
2 | HHHHKIKIQINMYYYY | 98.4 | 98.42 | 1,11 | 0,04 | 0.04454 | 0.04 | 0.04 | 0.04454 | 0.04454 | 0.04 | 1 (ThT. Cat is 1, if Rel. ThT >2) | 1 (ThT. Cat is 1, if Rel. ThT >2) | 1 (ThT. Cat is 1, if Rel. ThT >2) | 1 (ThT. Cat is 1, if Rel. ThT >2) | 1 (ThT. Cat is 1, if Rel. ThT >2) | 46.73 | –
3 | KFKFKFQF | 94 | 94 | 0,8 | -0,1 | -0.09726 | -0.1 | -0.1 | -0.09726 | -0.09726 | -0.1 | 1 (ThT. Cat is 1, if Rel. ThT >2) | 1 (ThT. Cat is 1, if Rel. ThT >2) | 1 (ThT. Cat is 1, if Rel. ThT >2) | 1 (ThT. Cat is 1, if Rel. ThT >2) | 1 (ThT. Cat is 1, if Rel. ThT >2) | 39.76 | –
4 | KFKFQFFF | 98.5 | 98.46 | 0,4 | -0,39 | -0.3936 | -0.39 | -0.39 | -0.3936 | -0.3936 | -0.39 | 1 (ThT. Cat is 1, if Rel. ThT >2) | 1 (ThT. Cat is 1, if Rel. ThT >2) | 1 (ThT. Cat is 1, if Rel. ThT >2) | 1 (ThT. Cat is 1, if Rel. ThT >2) | 1 (ThT. Cat is 1, if Rel. ThT >2) | 49.11 | –
5 | KFKFQFNM | 94.8 | 94.77 | 0,47 | -0,33 | -0.3265 | -0.33 | -0.33 | -0.3265 | -0.3265 | -0.33 | 0 (ThT-inactive (N-Fold <2)) | 0 (ThT-inactive (N-Fold <2)) | 0 (ThT-inactive (N-Fold <2)) | – | 0 (ThT-inactive (N-Fold <2)) | 40.31 | Abs. Inf. ([2]; absolute infection signal, HIV-1 on TZM-bl cells, β-galactosidase luminescence): 7067; Log10 Inf. rel. to EF-C ([2]; log10 of HIV-1 infection of TZM-bl cells relative to EF-C (EF-C = 0)): -0.3265; ThT Cat. ([3]; ThT category, 1 if Rel. ThT >2): 0 (ThT-inactive (N-Fold <2))
